Experimental findings from US20100311782A1, “SUBSTITUTED PIPERIDINYLPROPANOIC ACID COMPOUNDS AND METHODS OF THEIR USE” (priority 2009, published 2010) are described below.

Bounds are passed on as bounds.

Test [1] has as its target T1, cloned human κ opioid receptor (Homo sapiens, UniProt P41145).
T1 construct: expressed in transfected cells
As to the kind of experiment: Receptor binding, [3H]diprenorphine displacement, kappa opioid receptor. The following applies: [3H]diprenorphine, cloned human kappa opioid receptor; read-out: KOR Ki.

Test [2] addresses T2, cloned human δ opioid receptor (Homo sapiens, UniProt P41143).
T2 construct: expressed in transfected cells
In words: Receptor binding, [3H]diprenorphine displacement, delta opioid receptor. The following applies: read-out: DOR Ki.

The target of test [3] is T3, cloned human μ opioid receptor (Homo sapiens, UniProt P35372).
T3 construct: expressed in transfected cells
As to the kind of experiment: Inhibition of agonist (loperamide)-stimulated [35S]GTPγS binding. Format: biochemical. The following applies: in vitro studies. On the procedure: The potencies of the antagonists were assessed by their abilities to inhibit agonist-stimulated [^35S]GTPγS binding to membranes containing the cloned human μ, κ, or δ opioid receptors. The agonist used for the μ opioid receptor was loperamide.
To determine the IC50 value, which was the concentration to give half-maximal inhibition of agonist-stimulated [^35S]GTPγS binding, the amount of [^35S]GTPγS bound in the presence of a fixed concentration of agonist and various concentrations of antagonist was measured. The fixed concentration of agonist was the EC80 for the agonist, which was the concentration to give 80% of the relative maximum stimulation of [^35S]GTPγS binding. The IC50 value was determined from a best nonlinear regression fit of the data to the following equation,
where Y is the amount of [^35S]GTPγS bound at each concentration of antagonist, Bottom is the calculated amount of [^35S]GTPγS bound in the presence of an infinite concentration of antagonist, Top is the calculated amount of [^35S]GTPγS bound in the absence of added antagonist, X is the logarithm of the concentration of antagonist, and LogIC50 is the logarithm of the concentration of antagonist where the amount of [^35S]GTPγS bound is halfway between Bottom and Top. The nonlinear regression fit was performed using GraphPad Prism® version 3.00 for Windows (GraphPad Software, San Diego, Calif.).

Test [4] deals with T3, cloned human μ opioid receptor. As to the kind of experiment: Receptor binding, [3H]diprenorphine displacement, mu opioid receptor. The following applies: [3H]diprenorphine, cloned human mu opioid receptor; read-out: MOR Ki.

T3 sequence (P35372 whole entry): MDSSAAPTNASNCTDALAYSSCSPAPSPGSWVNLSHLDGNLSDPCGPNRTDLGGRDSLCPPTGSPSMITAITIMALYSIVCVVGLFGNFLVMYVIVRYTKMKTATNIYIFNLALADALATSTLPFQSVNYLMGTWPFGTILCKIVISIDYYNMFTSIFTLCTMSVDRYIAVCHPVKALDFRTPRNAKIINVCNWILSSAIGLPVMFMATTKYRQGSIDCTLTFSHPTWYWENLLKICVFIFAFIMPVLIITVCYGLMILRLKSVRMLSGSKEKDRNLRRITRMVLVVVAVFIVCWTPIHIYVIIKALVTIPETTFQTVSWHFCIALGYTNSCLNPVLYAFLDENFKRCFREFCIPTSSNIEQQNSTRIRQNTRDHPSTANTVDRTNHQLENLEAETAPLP
T1 sequence (P41145 whole entry): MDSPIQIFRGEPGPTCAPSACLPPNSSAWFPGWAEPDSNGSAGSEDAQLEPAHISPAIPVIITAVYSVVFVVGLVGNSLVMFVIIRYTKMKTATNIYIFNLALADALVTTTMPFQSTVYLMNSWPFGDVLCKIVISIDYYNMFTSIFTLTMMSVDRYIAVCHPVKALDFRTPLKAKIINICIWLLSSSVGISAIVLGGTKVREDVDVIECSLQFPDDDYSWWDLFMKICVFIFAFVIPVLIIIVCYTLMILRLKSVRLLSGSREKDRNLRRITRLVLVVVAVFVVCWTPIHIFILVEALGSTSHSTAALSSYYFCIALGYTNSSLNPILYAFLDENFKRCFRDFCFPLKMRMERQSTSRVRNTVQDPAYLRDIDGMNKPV
T2 sequence (P41143 whole entry): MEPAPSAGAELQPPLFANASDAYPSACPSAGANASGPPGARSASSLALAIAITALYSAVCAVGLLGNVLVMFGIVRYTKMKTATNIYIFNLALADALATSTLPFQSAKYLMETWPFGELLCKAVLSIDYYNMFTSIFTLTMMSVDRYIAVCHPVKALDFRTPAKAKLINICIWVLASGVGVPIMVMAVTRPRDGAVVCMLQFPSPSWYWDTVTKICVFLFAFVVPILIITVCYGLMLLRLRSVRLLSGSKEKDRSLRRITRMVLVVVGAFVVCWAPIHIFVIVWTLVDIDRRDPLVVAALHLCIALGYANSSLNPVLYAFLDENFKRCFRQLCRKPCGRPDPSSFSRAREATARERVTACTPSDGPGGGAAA

Take `C[C@H]1CN(C[C@H](Cc2ccccc2)C(=O)O)CC[C@@]1(C)c1cccc(C(=O)O)c1` [Example C-1, 3-[1-(2S-Carboxy-3-phenyl-propyl)-3R,4R-dimethyl-piperidin-4-yl]-benzoic acid, reference compound]: the inhibitory constant (Ki) in test [1] was greater than 10 µM; in test [2] it was greater than 10 µM; in test [4] it was 2.29 µM. Also, in test [3], the “inhibition of agonist-stimulated [35S]GTPγS binding relative to the other test compounds” value is “significantly reduced inhibition”.
